Measured values published in PMC3661926 (Acta Neuropathologica, 2013).
Where two headings read alike, the source gives them in different places.

Tests used:
[1] = system: 139A; conditions: mouse, in vivo, cited from earlier work
[2] = target: T1, α-synuclein (α-syn) (Homo sapiens, UniProt P37840); experiment: α-synuclein in vitro oligomer formation assay (SIFT); format: biochemical; conditions: read-out: % inhibition α-syn SIFT
T1 construct: made in house
Description: Expression and purification of recombinant wild-type α-synuclein (α-syn) was performed according to established protocols. Fluorescent labelling of α-syn and quality control were performed as described.
The α-syn aggregation assay was conducted with minor modifications as published previously. […] The concentration of α-syn was approximately 20 nM. In all experiments, α-syn aggregation was induced by final concentrations of 1 % DMSO and 10 μM FeCl3. Compounds were diluted into the assay mixture from 10-fold stock solutions containing 10 % DMSO (v/v), resulting in a final concentration of 1 % DMSO in all samples. “Low control” measurements for threshold setting were obtained without FeCl3 and DMSO. Experiments were started by diluting the 5-fold stock solution of fluorescently labelled α-syn in 50 mM Tris-buffer, pH 7.0, containing 1 % DMSO, 10 μM FeCl3 and compounds in concentrations ranging from 1–10 μM.
Aggregation of α-syn was measured by scanning for intensely fluorescent targets (SIFT). […] Excitation power was 200 μW at 488 nm and 300 μW at 633 nm. Measurement time was 10 s. Scanning parameters were set to 100 μm scan path length, 50 Hz beam scanner frequency, and 2,000 μm positioning table movement. The frequency of specific combinations of “green” and “red” photon counts was recorded in a two-dimensional intensity distribution histogram, as described previously. Evaluation of SIFT data in two-dimensional intensity distribution histograms was performed by summing up the numbers of photons from high intensity bins using a two-dimensional SIFT software module (Evotec-Technologies). For threshold setting, non-aggregated reference samples were used. The photon count in bins above the threshold was considered aggregate signal.

[3] = system: RML scrapie; experiment: whole plant or invertebrate; format: in vivo, C57BL/6 mice; conditions: for inhibition in vivo at 1 mg: in Mus musculus, po, 2880 h, read-out: % inhibition PrP^Sc in vivo (a); for % inhibition PrP^Sc in vivo (b): PrP^Sc level in spleen 35 days after i.p. infection, 34 days treatment with 1 mg compound oral in peanut butter
[4] = target: PrP^Sc (RML prion strain) (Mus musculus, UniProt P04925); experiment: biochemical; conditions: read-out: % inhibition PrP^Sc PMCA
[5] = system: prion strains RML, ME7, 301C, sCJD, vCJD; format: biochemical, mouse and human; conditions: 1 μl of 10 mM compound solution in DMSO
[6] = mouse, in vivo, po
[7] = system: actin; format: biochemical
[8] = system: RML; conditions: mouse, in vivo, cited from earlier work
[9] = system: prion; conditions: cited from earlier work
[10] = in vivo; cited from earlier work
[11] = system: cultured human peripheral lymphocytes
[12] = system: M1000; conditions: mouse, in vivo, ip; cited from earlier work
[13] = relative to high control, 10 μM compound, 1 % DMSO, 10 μM FeCl3

Chain of PrP^Sc (RML prion strain) (P04925 23-230 limits assumed): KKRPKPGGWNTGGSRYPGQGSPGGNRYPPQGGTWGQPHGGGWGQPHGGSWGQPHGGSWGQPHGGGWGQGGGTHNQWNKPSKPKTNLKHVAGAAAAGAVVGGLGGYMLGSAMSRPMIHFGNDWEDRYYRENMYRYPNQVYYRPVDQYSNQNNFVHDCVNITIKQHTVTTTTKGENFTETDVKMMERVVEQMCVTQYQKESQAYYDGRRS

Row | Molecule | inhibition at 10 µM [2, 13] [%] | inhibition in vivo at 1 mg [3] [%] | inhibition at 10 µM [4] [%] | conc. brain [6] | also measured
1 | CC[C@H](C)C(=O)O[C@H]1C[C@H](O)C=C2C=C[C@H](C)[C@H](CC[C@@H](O)C[C@@H](O)CC(=O)O)[C@H]21 [Pravastatin] | – | – | – | – | Median/Mean* Survival Therapy ([1]; po, 200 mg/kg): 194 days; difference of survival therapy vs control ([1]; po, 200 mg/kg): 17 days
2 | Brc1ccccc1-c1cc(-c2ccc3c(c2)OCO3)n[nH]1 [anle234b] | < 10 | < 10 | < 10 | 32.1 nmol/g | inhibitory activity in PMCA, all prion strains tested [5]: inactive
3 | FC(F)(F)c1cccc(-c2cc(-c3ccc4c(c3)OCO4)n[nH]2)c1 [anle236b] | < 10 | 12 | < 10 | 39.3 nmol/g | –
4 | O=[N+]([O-])c1ccc(-c2cc(-c3cccc(Cl)c3)n[nH]2)cc1 | – | – | – | – | melting point: 275 to 276 °C
5 | Oc1ccc(-c2cc(-c3cccc(Br)c3)n[nH]2)cc1O [anle138c] | 99 | < 10 | 19 | – | effect on actin polymerization [7]: do not affect actin polymerization
6 | Clc1cccc(-c2cc(-c3ccc4c(c3)OCO4)n[nH]2)c1 [sery335b, 3-(1,3-Benzodioxol-5-yl)-5-(3-chlorophenyl)-1H-pyrazole] | 90 | 68 | 52 | 29.6 nmol/g | % inhibition PrP^Sc in vivo (b) [3]: 46%
7 | CCC(C)(C)C(=O)O[C@H]1C[C@@H](C)C=C2C=C[C@H](C)[C@H](CC[C@@H]3C[C@@H](O)CC(=O)O3)[C@H]21 [Simvastatin] | – | – | – | – | Median/Mean* Survival Therapy ([8]; po, 20 mg/kg): 167 days; difference of survival therapy vs control ([8]; po, 20 mg/kg): 19 days
8 | CC(CN(C)C)CN1c2ccccc2CCc2ccccc21 (centres unmarked) [Trimipramine] | – | – | – | – | Median/Mean* Survival Therapy ([1]; ip, 10 mg/kg): 210 days; difference of survival therapy vs control ([1]; ip, 10 mg/kg): 40 days
9 | Brc1cccc(-c2c[nH]c(-c3ccc4c(c3)OCO4)n2)c1 [sery345] | 57 | < 10 | < 10 | 16.6 nmol/g | –
10 | CCN(CC)CCCC(C)Nc1c2ccc(Cl)cc2nc2ccc(OC)cc12 (centres unmarked) [quinacrine] | – | – | – | – | anti-prion activity in cell culture [9]: high anti-prion activity in cell culture; concentrations reached in the brain [10]: does not reach sufficient concentrations in the brain
11 | Br.Oc1cc(-c2cc(-c3cc(Br)cc(Br)c3)n[nH]2)cc(O)c1O [anle145c] | – | – | – | – | effect on actin polymerization [7]: do not affect actin polymerization
12 | O=P1(N(CCCl)CCCl)NCCCO1 (centres unmarked) [cyclophosphamide, reference compound] | – | – | – | – | chromosomal damage by positive controls [11]: significant damage
13 | CN(C)c1ccc(-c2cc(-c3cccc(Br)c3)n[nH]2)cc1 [anle253b] | 50 | 59 | 80 | 2.1 nmol/g | effect on actin polymerization [7]: do not affect actin polymerization
14 | CO[C@@]12[C@H](COC(N)=O)C3=C(C(=O)C(C)=C(N)C3=O)N1C[C@@H]1N[C@@H]12 [Mitomycin C, reference compound] | – | – | – | – | chromosomal damage by positive controls [11]: significant damage
15 | Na2CaCDTA | – | – | – | – | Median/Mean* Survival Therapy [12]: 189 days; difference of survival therapy vs control [12]: 20 days
16 | Fc1ccc(F)c(-c2cc(-c3ccc4c(c3)OCO4)n[nH]2)c1 | – | – | – | – | melting point: 225 to 226 °C
17 | COc1cc(/C=C/C(=O)CC(=O)/C=C/c2ccc(O)c(OC)c2)ccc1O [Curcumin] | – | – | – | – | Median/Mean* Survival Therapy ([1]; po, 50 mg/kg): 208 days; difference of survival therapy vs control ([1]; po, 50 mg/kg): 12 days
18 | Ic1cccc(-c2cc(-c3ccc4c(c3)OCO4)n[nH]2)c1 [anle197b] | < 10 | – | 16 | – | % inhibition PrP^Sc in vivo (b) [3]: <10^b %
19 | Fc1cccc(-c2nc(-c3ccc4c(c3)OCO4)no2)c1 | – | – | – | – | melting point: 161 °C
20 | Cl.Nc1ccc(-c2cc(-c3cccc(Br)c3)[nH]n2)cc1 [sery384] | – | < 10 | 55 | 13,9 nmol/g | inhibition at 10 µM [2]: 99%
21 | Fc1cccc(-c2cc(-c3ccc4c(c3)OCO4)n[nH]2)c1 [anle186b] | < 10 | – | 48 | 31.1 nmol/g | % inhibition PrP^Sc in vivo (c) ([3]; PrP^Sc level in brain 106 days after i.c. infection, treatment 24 days: 14 days i.p. 0.84 mg, 2 × 5 days oral gavage 1 mg): 30^c %; change of PrPSc levels in brain, mixed application scheme ([3]; from 80 dpi: 14 days i.p. 0.84 mg, 2 x 5 days gavage 1 mg, measured at 95 and 106 dpi): slight reduction of PrPSc accumulation
22 | Brc1cccc(-c2cc(-c3ccc4[nH]cnc4c3)n[nH]2)c1 [sery417] | < 10 | < 10 | 51 | 0 nmol/g | –
23 | C=CC[C@@H]1/C=C(\C)C[C@H](C)C[C@H](OC)[C@H]2O[C@@](O)(C(=O)C(=O)N3CCCC[C@H]3C(=O)O[C@H](/C(C)=C/[C@@H]3CC[C@@H](O)[C@H](OC)C3)[C@H](C)[C@@H](O)CC1=O)[C@H](C)C[C@@H]2OC [Tacrolimus] | – | – | – | – | Median/Mean* Survival Therapy ([8]; ip, 5 mg/kg): 35 days; difference of survival therapy vs control ([8]; ip, 5 mg/kg): 9 days
24 | c1cc2c(cc1-c1cc(-c3ccc4c(c3)OCO4)[nH]n1)OCO2 [anle232b] | < 10 | 23 | 26 | – | –
25 | Nc1ccc(-c2cc(-c3ccc(Cl)cc3)[nH]n2)cc1 | – | – | – | – | melting point: 213 to 214 °C
26 | Brc1ccc(-c2cc(-c3ccc4c(c3)OCO4)n[nH]2)cc1 [sery378b] | 74 | 39 | 34 | 26 nmol/g | –
27 | OCCN1CCN(CCCN2c3ccccc3Sc3ccc(C(F)(F)F)cc32)CC1 [Fluphenazine] | – | – | – | – | Median/Mean* Survival Therapy ([1]; ip, 10 mg/kg): 205 days; difference of survival therapy vs control ([1]; ip, 10 mg/kg): 35 days
28 | Brc1cccc(-c2cc(-c3ccc4c(c3)CCO4)[nH]n2)c1 [sery312b] | – | 13 | 42 | 3,6 nmol/g | inhibition at 10 µM [2]: < 10%
